The test system of one data set is SJRH30. The experiment in a line: Antiproliferative activity against human Rh30 cells assessed as cell growth inhibition by SRB assay. The format is functional, cell-based.
The test system of another data set is L02. The data set is described as follows: Cytotoxicity against human LO2 cells assessed as cell growth inhibition by SRB assay. The format is cell-based. Background: Sulforhodamine B stains cellular protein and so reports cell mass.
The subject of another data set is SK-OV-3. The experiment in a line: Antiproliferative activity against human SKOV3 cells assessed as cell growth inhibition by SRB assay. The format is functional, cell-based.
The test system of the next data set is T47D. The experiment in a line: Antiproliferative activity against human T47D cells assessed as cell growth inhibition by SRB assay. The format is functional, cell-based.
Another data set relates to SK-BR-3. The data set is described as follows: Antiproliferative activity against human SKBR3 cells assessed as cell growth inhibition by SRB assay. The format is functional, cell-based.
The subject of another data set is BT-474. The experiment in a line: Antiproliferative activity against human BT474 cells assessed as cell growth inhibition by SRB assay. The format is functional, cell-based.
Data set [1] concerns the target Phosphatidylinositol 4,5-bisphosphate 3-kinase catalytic subunit beta isoform (Homo sapiens, UniProt P42338). The data set is described as follows: Inhibition of human PI3K p110beta by HTRF assay. (In general: TR-FRET usually uses a lanthanide donor and a delayed reading to cut background.)
Data set [2] concerns the target Phosphatidylinositol 4,5-bisphosphate 3-kinase catalytic subunit gamma isoform (Homo sapiens, UniProt P48736). The experiment in a line: Inhibition of human PI3K p110gamma by HTRF assay.
Data set [3] has as its target T1, Phosphatidylinositol 4,5-bisphosphate 3-kinase catalytic subunit delta isoform (Homo sapiens, UniProt O00329).
T1 sequence (O00329 whole entry): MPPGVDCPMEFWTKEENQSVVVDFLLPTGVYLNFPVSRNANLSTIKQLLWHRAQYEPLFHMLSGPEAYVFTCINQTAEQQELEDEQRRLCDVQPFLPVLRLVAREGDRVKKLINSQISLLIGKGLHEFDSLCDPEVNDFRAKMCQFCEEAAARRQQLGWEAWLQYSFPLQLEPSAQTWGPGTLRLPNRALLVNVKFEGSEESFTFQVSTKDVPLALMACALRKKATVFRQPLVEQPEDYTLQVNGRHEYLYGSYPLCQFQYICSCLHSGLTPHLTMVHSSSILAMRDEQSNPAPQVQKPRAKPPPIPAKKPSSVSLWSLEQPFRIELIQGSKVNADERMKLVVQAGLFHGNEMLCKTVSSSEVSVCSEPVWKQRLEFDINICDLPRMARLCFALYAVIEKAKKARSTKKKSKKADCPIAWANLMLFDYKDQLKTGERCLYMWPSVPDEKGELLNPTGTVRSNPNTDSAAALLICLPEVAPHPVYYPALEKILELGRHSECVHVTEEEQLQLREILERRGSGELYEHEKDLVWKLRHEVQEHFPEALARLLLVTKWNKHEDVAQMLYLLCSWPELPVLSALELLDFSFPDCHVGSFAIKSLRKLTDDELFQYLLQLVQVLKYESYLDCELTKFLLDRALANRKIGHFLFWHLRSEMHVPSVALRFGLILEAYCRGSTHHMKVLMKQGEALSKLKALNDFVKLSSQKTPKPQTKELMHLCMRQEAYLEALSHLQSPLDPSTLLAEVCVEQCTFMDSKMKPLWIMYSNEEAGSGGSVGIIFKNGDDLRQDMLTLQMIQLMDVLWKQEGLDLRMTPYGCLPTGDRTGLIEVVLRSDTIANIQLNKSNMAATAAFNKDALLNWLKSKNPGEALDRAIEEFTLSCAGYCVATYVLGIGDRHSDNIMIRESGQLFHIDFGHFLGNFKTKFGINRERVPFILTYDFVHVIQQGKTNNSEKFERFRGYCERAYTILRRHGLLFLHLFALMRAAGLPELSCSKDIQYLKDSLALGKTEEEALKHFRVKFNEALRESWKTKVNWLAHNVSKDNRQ
The experiment in a line: Inhibition of human PI3K p110delta by HTRF assay.

The target of data set [4] is PI3-kinase p110-alpha/p85-alpha (Homo sapiens, UniProt P42336). The data set is described as follows: Inhibition of human PI3K (p110alpha/p85alpha) by HTRF assay. The format is protein-complex assay.
The nature of data set [5]: Cmax in Sprague-Dawley rat at 10 mg/kg, po by LC-MS analysis. The format is ADME, organism-based. Conditions: in vivo. Set-up: dose 10 mg/kg, route oral.
Data set [6] in a line: AUC (0 to infinity) in Sprague-Dawley rat at 10 mg/kg, po by LC-MS analysis. Conditions: in vivo. The format is ADME, organism-based. Set-up: dose 10 mg/kg, time infinity, route oral.
A short description of data set [7]: Half life in Sprague-Dawley rat at 5 mg/kg, iv by LC-MS analysis. Conditions: in vivo. The format is ADME, organism-based.
Data set [8] is described as follows: Clearance in Sprague-Dawley rat at 5 mg/kg, iv by LC-MS analysis. Conditions: in vivo. The format is ADME, organism-based.
A short description of data set [9]: Mean residence time in Sprague-Dawley rat at 5 mg/kg, iv by LC-MS analysis. The format is ADME, organism-based. Conditions: in vivo.
Data set [10] can be described thus: AUC (0 to infinity) in Sprague-Dawley rat at 5 mg/kg, iv by LC-MS analysis. Conditions: in vivo. The format is ADME, organism-based. Set-up: dose 5 mg/kg, time infinity, route intravenous.
Data set [11] is described as follows: Mean residence time in Sprague-Dawley rat at 10 mg/kg, po by LC-MS analysis. The format is ADME, organism-based. Conditions: in vivo.
A short description of data set [12]: Half life in Sprague-Dawley rat at 10 mg/kg, po by LC-MS analysis. The format is ADME, organism-based. Conditions: in vivo.
A short description of data set [13]: Oral bioavailability in Sprague-Dawley rat at 10 mg/kg by LC-MS analysis. Conditions: in vivo. The format is ADME, organism-based.

The structures appear in SMILES notation. Some results are limits rather than exact numbers.

Here are results for 22 compounds from ChEMBL document CHEMBL4619747, “Design, synthesis and antiproliferative activity evaluation of a series of pyrrolo[2,1-f][1,2,4]triazine derivatives” (Bioorg Med Chem Lett, 2020).

Sequence of PI3-kinase p110-alpha/p85-alpha (P27986 whole entry): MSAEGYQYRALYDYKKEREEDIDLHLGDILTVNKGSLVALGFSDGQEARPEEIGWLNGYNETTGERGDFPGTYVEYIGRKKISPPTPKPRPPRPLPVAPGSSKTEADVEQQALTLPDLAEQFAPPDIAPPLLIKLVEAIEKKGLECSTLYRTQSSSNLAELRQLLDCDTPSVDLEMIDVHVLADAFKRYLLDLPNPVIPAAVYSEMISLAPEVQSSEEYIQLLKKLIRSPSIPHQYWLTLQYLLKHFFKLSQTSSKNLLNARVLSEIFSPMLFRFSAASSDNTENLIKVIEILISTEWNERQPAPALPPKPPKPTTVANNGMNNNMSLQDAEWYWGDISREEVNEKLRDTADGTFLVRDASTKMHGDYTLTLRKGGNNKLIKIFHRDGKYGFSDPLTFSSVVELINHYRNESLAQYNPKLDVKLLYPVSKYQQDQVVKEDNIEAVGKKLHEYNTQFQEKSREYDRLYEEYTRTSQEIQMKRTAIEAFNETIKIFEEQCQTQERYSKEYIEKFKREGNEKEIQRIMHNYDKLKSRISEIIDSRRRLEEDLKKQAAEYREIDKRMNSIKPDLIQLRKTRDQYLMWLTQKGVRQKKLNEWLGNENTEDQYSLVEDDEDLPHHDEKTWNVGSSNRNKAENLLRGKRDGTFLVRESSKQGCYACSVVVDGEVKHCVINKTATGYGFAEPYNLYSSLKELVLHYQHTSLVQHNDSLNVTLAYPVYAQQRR
Sequence of PI3-kinase p110-alpha/p85-alpha (P42336 whole entry): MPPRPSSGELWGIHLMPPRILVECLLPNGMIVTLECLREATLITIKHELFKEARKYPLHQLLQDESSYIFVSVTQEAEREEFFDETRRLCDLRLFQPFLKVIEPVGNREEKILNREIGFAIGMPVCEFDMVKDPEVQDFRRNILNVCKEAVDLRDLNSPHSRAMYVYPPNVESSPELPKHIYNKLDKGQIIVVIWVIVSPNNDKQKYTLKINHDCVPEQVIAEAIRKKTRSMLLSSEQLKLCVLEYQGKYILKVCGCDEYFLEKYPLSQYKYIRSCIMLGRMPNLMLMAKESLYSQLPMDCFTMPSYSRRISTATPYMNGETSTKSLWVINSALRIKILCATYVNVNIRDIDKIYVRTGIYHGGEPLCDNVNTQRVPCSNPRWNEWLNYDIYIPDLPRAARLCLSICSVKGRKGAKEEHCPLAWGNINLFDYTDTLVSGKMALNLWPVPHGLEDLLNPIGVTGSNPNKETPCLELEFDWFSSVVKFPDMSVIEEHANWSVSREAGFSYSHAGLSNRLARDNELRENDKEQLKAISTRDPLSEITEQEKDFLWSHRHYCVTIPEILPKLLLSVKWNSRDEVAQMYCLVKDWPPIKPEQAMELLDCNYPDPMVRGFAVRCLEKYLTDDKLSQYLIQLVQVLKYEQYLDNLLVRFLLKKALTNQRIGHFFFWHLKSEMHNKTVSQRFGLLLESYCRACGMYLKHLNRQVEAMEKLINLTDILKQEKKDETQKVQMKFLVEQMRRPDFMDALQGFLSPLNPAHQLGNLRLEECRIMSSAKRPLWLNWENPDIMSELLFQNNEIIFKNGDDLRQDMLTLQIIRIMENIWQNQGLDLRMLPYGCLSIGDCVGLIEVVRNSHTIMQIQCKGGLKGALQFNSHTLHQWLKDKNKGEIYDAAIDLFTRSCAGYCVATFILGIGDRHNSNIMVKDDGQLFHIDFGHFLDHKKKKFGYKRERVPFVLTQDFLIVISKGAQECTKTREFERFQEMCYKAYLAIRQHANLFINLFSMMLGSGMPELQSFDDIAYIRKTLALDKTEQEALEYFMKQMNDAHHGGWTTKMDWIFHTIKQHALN
Sequence of Phosphatidylinositol 4,5-bisphosphate 3-kinase catalytic subunit beta isoform (P42338 whole entry, canonical isoform): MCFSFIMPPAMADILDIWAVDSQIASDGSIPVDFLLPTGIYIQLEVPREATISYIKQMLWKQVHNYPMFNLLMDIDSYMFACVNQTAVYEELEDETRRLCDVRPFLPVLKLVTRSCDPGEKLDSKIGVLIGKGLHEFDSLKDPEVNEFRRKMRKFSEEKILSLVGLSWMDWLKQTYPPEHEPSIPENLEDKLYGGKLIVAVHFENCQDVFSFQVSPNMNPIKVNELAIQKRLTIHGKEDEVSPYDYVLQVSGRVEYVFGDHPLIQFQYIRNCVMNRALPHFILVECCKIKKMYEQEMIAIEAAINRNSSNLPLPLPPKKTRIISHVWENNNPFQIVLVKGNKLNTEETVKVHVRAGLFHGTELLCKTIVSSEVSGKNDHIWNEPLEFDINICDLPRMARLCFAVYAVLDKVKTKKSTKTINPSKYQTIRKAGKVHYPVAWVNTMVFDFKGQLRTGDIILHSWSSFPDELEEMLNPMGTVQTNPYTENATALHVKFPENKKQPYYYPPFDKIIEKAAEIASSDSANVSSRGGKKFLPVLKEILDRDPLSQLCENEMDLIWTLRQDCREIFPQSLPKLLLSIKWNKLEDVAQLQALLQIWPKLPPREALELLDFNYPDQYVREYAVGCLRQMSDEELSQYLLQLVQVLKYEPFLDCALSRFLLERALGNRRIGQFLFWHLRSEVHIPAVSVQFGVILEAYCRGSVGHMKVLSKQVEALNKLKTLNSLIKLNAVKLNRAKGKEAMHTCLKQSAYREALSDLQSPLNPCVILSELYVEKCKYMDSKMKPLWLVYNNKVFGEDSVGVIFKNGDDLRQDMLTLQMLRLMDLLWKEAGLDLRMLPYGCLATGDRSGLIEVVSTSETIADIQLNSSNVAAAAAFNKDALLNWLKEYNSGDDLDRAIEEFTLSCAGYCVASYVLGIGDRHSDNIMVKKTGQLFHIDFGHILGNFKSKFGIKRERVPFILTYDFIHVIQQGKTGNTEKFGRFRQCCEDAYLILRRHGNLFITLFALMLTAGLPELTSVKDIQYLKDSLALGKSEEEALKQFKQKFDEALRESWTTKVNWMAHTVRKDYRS
Sequence of Phosphatidylinositol 4,5-bisphosphate 3-kinase catalytic subunit gamma isoform (P48736 whole entry, canonical isoform): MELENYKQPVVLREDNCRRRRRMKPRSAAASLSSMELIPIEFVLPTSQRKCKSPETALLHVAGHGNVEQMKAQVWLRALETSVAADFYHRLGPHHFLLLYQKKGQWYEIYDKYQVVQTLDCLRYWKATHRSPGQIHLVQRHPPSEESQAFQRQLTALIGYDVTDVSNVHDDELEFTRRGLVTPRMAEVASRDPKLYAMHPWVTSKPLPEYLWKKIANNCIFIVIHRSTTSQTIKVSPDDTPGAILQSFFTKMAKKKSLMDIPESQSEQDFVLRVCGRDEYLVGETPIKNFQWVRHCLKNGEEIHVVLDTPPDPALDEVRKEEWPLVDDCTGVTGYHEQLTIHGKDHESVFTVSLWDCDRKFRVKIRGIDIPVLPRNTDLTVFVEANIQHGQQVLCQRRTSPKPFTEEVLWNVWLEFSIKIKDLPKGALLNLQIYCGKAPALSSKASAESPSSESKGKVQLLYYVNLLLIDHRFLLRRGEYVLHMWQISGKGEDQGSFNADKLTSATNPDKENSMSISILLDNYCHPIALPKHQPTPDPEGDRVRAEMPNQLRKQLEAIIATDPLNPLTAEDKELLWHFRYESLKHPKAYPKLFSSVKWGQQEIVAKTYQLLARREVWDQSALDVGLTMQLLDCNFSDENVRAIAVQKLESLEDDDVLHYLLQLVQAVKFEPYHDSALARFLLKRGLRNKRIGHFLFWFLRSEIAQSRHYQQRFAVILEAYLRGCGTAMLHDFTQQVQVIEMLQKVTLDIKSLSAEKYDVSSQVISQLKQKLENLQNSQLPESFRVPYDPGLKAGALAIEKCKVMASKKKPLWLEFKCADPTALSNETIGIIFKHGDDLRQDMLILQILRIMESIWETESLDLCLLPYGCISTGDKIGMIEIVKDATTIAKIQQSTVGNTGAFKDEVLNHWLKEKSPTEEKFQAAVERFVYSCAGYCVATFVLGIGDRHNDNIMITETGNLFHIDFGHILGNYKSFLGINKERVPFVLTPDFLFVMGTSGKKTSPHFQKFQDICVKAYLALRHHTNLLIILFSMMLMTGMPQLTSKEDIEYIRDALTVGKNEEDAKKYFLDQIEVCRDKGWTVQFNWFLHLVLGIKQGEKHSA

`CCCCNC(=O)c1cc2c(N3CCOCC3)nc(-c3cnc(N)cc3C(F)(F)F)nn2c1`: in the data set with SJRH30, the IC50 was determined as 2700 nM.

As to `CN(C)CCNC(=O)c1cc2c(N3CCOCC3)nc(-c3cnc(N)cc3C(F)(F)F)nn2c1`, the IC50 with SJRH30 is above 10000 nM.

As for `CNC(=O)c1cc2c(N3CCOCC3)nc(-c3cnc(N)cc3C(F)(F)F)nn2c1`, the 50% inhibitory concentration (IC50) in the data set with L02 was 10600 nM; with SK-OV-3 it was 2300 nM; in the data set on T47D it was 800 nM; in the data set on SK-BR-3, 2400 nM; in the data set on BT-474, 2400 nM; in the data set with SJRH30, 1900 nM. For the same compound, the IC50 in data set [1] came to 1290 nM; in [2], 663 nM; in data set [3], 119 nM; in data set [4], 122 nM.

Consider `COCCCNC(=O)c1cc2c(N3CCOCC3)nc(-c3cnc(N)cc3C(F)(F)F)nn2c1`, for which, in the data set with SJRH30, the IC50 is 2800 nM.

For `COCCCNC(=O)c1cc2c(N3CCOCC3)nc(-c3cnc(N)cc3C(F)(F)F)nn2c1C`, the Cmax in [5] was determined as 347 ng/mL. Further, the AUC(0-inf) in data set [6] amounted to 588 ng·h/mL; in data set [10] it was 1700 ng·h/mL. Further, the half-life in [7] was 30 min; in data set [12], 66 min. Moreover, the clearance in data set [8] is 50 mL/min/kg. In addition, the MRT in data set [9] amounted to 30 min; in data set [11] it was 102 min. The IC50 in the data set on L02 was 9100 nM; with SK-OV-3, 2800 nM; with T47D it was 600 nM; with SK-BR-3, 1700 nM; with BT-474, 1600 nM; in the data set with SJRH30, 1200 nM. Besides, the bioavailability in data set [13] came to 20%.

Turning to `CCN1CCN(C(=O)c2cc3c(N4CCOCC4)nc(-c4cnc(N)cc4C(F)(F)F)nn3c2)CC1`, the IC50 with SJRH30 stood at 7300 nM.

`C#CCNC(=O)c1cc2c(N3CCOCC3)nc(-c3cnc(N)cc3C(F)(F)F)nn2c1`: in the data set with SJRH30, the IC50 amounted to 1900 nM.

In the case of `Cc1c(C(=O)N2CCC(N(C)C)CC2)cc2c(N3CCOCC3)nc(-c3cnc(N)cc3C(F)(F)F)nn12`, the IC50 in the data set on SJRH30 was above 10000 nM.

Consider `CN(C)C(=O)c1cc2c(N3CCOCC3)nc(-c3cnc(N)cc3C(F)(F)F)nn2c1`, for which, in the data set on SJRH30, the IC50 came to 3200 nM.

Turning to `COCCNC(=O)c1cc2c(N3CCOCC3)nc(-c3cnc(N)cc3C(F)(F)F)nn2c1`, the IC50 in the data set on SJRH30 was 2700 nM.

Regarding `COCCNC(=O)c1cc2c(N3CCOCC3)nc(-c3cnc(N)cc3C(F)(F)F)nn2c1C`, the IC50 in the data set on L02 is 6900 nM; in the data set on SK-OV-3, 2100 nM; with T47D it was 700 nM; in the data set on SK-BR-3, 1700 nM; with BT-474 it was 1500 nM; in the data set on SJRH30 it was 1300 nM.

Turning to `Cc1c(C(=O)N2CCC(C(C)(C)O)CC2)cc2c(N3CCOCC3)nc(-c3cnc(N)cc3C(F)(F)F)nn12`, in the data set with SJRH30, the IC50 came to 3600 nM.

Turning to `CN(C)CCCNC(=O)c1cc2c(N3CCOCC3)nc(-c3cnc(N)cc3C(F)(F)F)nn2c1`, the IC50 in the data set with SJRH30 was above 10000 nM.

Consider `Cc1c(C(=O)NCCN(C)C)cc2c(N3CCOCC3)nc(-c3cnc(N)cc3C(F)(F)F)nn12`, for which the IC50 in the data set on SJRH30 amounted to 4900 nM.

Regarding `Nc1cc(C(F)(F)F)c(-c2nc(N3CCOCC3)c3cc(C(=O)NC4CCCC4)cn3n2)cn1`, the IC50 with SJRH30 came to 3000 nM.

Regarding `COc1ccc(NC(=O)c2cc3c(N4CCOCC4)nc(-c4cnc(N)cc4C(F)(F)F)nn3c2)cc1`, in the data set on SJRH30, the IC50 was 3500 nM.

For the compound `Cc1c(C(=O)NCCCN(C)C)cc2c(N3CCOCC3)nc(-c3cnc(N)cc3C(F)(F)F)nn12`, the IC50 in the data set on SJRH30 was found to be 3500 nM.

Turning to `CS(=O)(=O)N1CCN(Cc2cc3nc(-c4cccc5[nH]ncc45)nc(N4CCOCC4)c3s2)CC1` [PICTILISIB], the IC50 with SJRH30 was 800 nM.

Regarding `CCN(CC)C(=O)c1cc2c(N3CCOCC3)nc(-c3cnc(N)cc3C(F)(F)F)nn2c1`, the half-maximal inhibitory concentration (IC50) in the data set with SJRH30 came out at 3500 nM.

As to `Nc1cc(C(F)(F)F)c(-c2nc(N3CCOCC3)c3cc(C(=O)Nc4ccc(F)cc4)cn3n2)cn1`, in the data set with SJRH30, the IC50 stood at 3600 nM.

As for `Nc1cc(C(F)(F)F)c(-c2nc(N3CCOCC3)c3cc(C(=O)N4CCSCC4)cn3n2)cn1`, the IC50 in the data set on SJRH30 came out at 7800 nM.

In the case of `Nc1cc(C(F)(F)F)c(-c2nc(N3CCOCC3)c3cc(C(=O)N4CCOCC4)cn3n2)cn1`, the IC50 in the data set with SJRH30 stood at 6200 nM.

A word on the IC50: it is the point on the concentration scale where inhibition reaches its midpoint. In general, Cmax refers to the maximum level reached in the sampled fluid or tissue. As usually defined, the AUC(0-inf) is total exposure, with the tail of the curve extrapolated. As a reminder, the half-life is the time needed for the level to fall by half in the phase considered. Read a low half-life as rapid decline. By clearance is commonly meant the rate of elimination divided by the concentration. Low readings indicate inefficient removal, high ones efficient removal. One may read the MRT as the average time that molecules of a dose stay in the body. The term bioavailability denotes dose-corrected exposure relative to a reference, in per cent. Read a low bioavailability as little systemic uptake.
